Like-named read-outs stand apart in the source and are kept apart here.
What was measured:
[1] = system: HCV GT 1b subgenomic reporter replicon (strain Con1); experiment: HCV GT 1b subgenomic replicon luciferase antiviral assay in Huh5-2 cells; assay type: cell-based; settings: Hepatitis C virus, GT1B, Huh-5-2, 72 h, read-out: EC50 HCV Replicon 1b
[2] = alamarBlue reduction cytotoxicity assay in replicon cells; assay type: cell-based; settings: human, HCV Replicon 1b cells
[3] = system: HCV GT 3a (strain S52) replicon; experiment: HCV GT 3a subgenomic replicon luciferase antiviral assay in Huh7.5-3a cells; assay type: cell-based; settings: Hepatitis C virus, GT3A, 72 h, read-out: EC50 HCV Replicon 3a
[4] = system: HCV GT 4a (strain ED43) replicon; experiment: HCV GT 4a subgenomic replicon luciferase antiviral assay in Huh7.5-4a cells; assay type: cell-based; settings: Hepatitis C virus, GT4A, 72 h, read-out: EC50 HCV Replicon 4a
[5] = system: NS5B; settings: cited from earlier work
[6] = system: HCV GT-1b replicon; settings: HCV GT-1b replicon luciferase reporter assay (n ≥ 2); cited from earlier work
[7] = system: HCV GT 2a; experiment: Activity against HCV GT 2a (data not shown); assay type: cell-based
[8] = Huh5-2, GT 1b (Con1), F-Luc, 3 days
[9] = Huh7.5-3a, GT 3a (S52), F-Luc, 3 days
[10] = Huh7.5-4a, GT 4a (ED43), F-Luc, 3 days
[11] = reported NS5B TP-2 inhibitors, Figure 1

| SMILES | EC50 [1, 8] [µM] | CC50 at 3 days [2] [µM] | EC50 [3, 9] [µM] | melting point [°C] | EC50 [4, 10] [µM] | EC50 [1] [µM] | IC50 [5, 11] [µM] | EC50 [6] [µM] | activity against GT 2a [7] | EC50 [3] [µM] | EC50 [4] [µM] | IC50 ([5]; enzymatic assays) [µM] |
| --- | --- | --- | --- | --- | --- | --- | --- | --- | --- | --- | --- | --- |
| Cc1cc(OCC(=O)Nc2ccc3c(c2)c(=O)ncn3-c2ccccc2)ccc1Cl [7c, 2-(4-Chloro-3-methylphenoxy)-N-(4-oxo-1-phenyl-1,4-dihydroquinazolin-6-yl)acetamide] | > 10 | 75.2 ± 9.24 | > 10 | 255 | > 10 | – | – | – | – | – | – | – |
| Cc1cccc(-n2cnc(=O)c3cc([N+](=O)[O-])ccc32)c1 [4b, 6-Nitro-1-(m-tolyl)quinazolin-4(1H)-one] | > 10 | 64.9 ± 0.03 | > 10 | 185 | > 10 | – | – | – | – | – | – | – |
| Cc1nc(=O)c2cc([N+](=O)[O-])ccc2n1-c1ccccc1 [8a, 2-Methyl-6-nitro-1-phenylquinazolin-4(1H)-one] | – | > 200 | > 10 | 260 to 262 | > 10 | > 10 | – | – | – | – | – | – |
| O=C(COc1ccc(Cl)cc1)Nc1ccc2c(c1)c(=O)ncn2-c1ccccc1 [7b, 2-(4-Chlorophenoxy)-N-(4-oxo-1-phenyl-1,4-dihydroquinazolin-6-yl)acetamide] | > 10 | 154 ± 3.71 | > 10 | 262 | > 10 | – | – | – | – | – | – | – |
| CC1CCC(C(=O)N(c2ccc(Oc3ncccc3C(F)(F)F)cc2C(=O)O)C(C)C)CC1 (centres unmarked) [VI] | – | – | – | – | – | – | 0.08 | 0.095 | – | – | – | – |
| Cc1nc(=O)c2cc(N)ccc2n1-c1ccccc1 [9a, 6-Amino-2-methyl-1-phenylquinazolin-4(1H)-one] | – | > 200 | > 10 | 268 to 270 | > 10 | > 10 | – | – | – | – | – | – |
| Cc1cccc(-n2c(C)nc(=O)c3cc(N)ccc32)c1 [9b, 6-Amino-2-methyl-1-(m-tolyl)quinazolin-4(1H)-one] | > 10 | > 200 | > 10 | 270 to 273 | > 10 | – | – | – | – | – | – | – |
| NC(=O)c1cc([N+](=O)[O-])ccc1Nc1ccccc1 [3a, 5-nitro-2-(phenylamino)benzamide] | > 10 | 70.69 ± 0.04 | > 10 | – | > 10 | – | – | – | – | – | – | – |
| Cc1cccc(Nc2ccc([N+](=O)[O-])cc2C(N)=O)c1 [3b, 5-Nitro-2-(m-tolylamino) benzamide] | > 10 | 161.3 ± 0.07 | > 10 | 188 to 190 | > 10 | – | – | – | – | – | – | – |
| CC1CCC(C(=O)N(c2cc(-c3ccccc3)sc2C(=O)O)C(C)C)CC1 (centres unmarked) [IV] | – | – | – | – | – | – | 0.028 | – | – | – | – | – |
| Cc1ccc(S(=O)(=O)Nc2cc(-c3ccc(F)cc3)sc2C(=O)O)cc1 [I] | – | – | – | – | – | – | 0.29 | – | – | – | – | – |
| Cc1cccc(-n2c(C)nc(=O)c3cc(NC(=O)CCl)ccc32)c1 [10b, 2-Chloro-N-(2-methyl-4-oxo-1-(m-tolyl)-1,4-dihydroquinazolin-6-yl)acetamide] | > 10 | 177.2 ± 0.03 | > 10 | 280 | > 10 | – | – | – | – | – | – | – |
| Cc1cccc(-n2cnc(=O)c3cc(NC(=O)CCl)ccc32)c1 [6b, 2-Chloro-N-(4-oxo-1-(m-tolyl)-1,4-dihydroquinazolin-6-yl)acetamide] | > 10 | 143 ± 14.2 | > 10 | 290 | > 10 | – | – | – | – | – | – | – |
| Cc1cccc(-n2cnc(=O)c3cc(N)ccc32)c1 [5b, 6-Amino-1-(m-tolyl)quinazolin-4(1H)-one] | > 10 | > 200 | > 10 | 288 to 290 | > 10 | – | – | – | – | – | – | – |
| Cc1ccc(OCC(=O)Nc2ccc3c(c2)c(=O)ncn3-c2cccc(C)c2)cc1 [7d, N-(4-oxo-1-(m-tolyl)-1,4-dihydroquinazolin-6-yl)-2-(p-tolyloxy)acetamide] | > 10 | 50.1 ± 1.77 | > 10 | 206 | > 10 | – | – | – | – | – | – | – |
| O=c1ncn(-c2ccccc2)c2ccc([N+](=O)[O-])cc12 [4a, 6-Nitro-1-phenylquinazolin-4(1H)-one] | > 10 | > 200 | > 10 | 246 to 248 | > 10 | – | – | – | – | – | – | – |
| Cc1cccc(-n2cnc(=O)c3cc(NC(=O)COc4ccc(Cl)cc4)ccc32)c1 [7e, 2-(4-Chlorophenoxy)-N-(4-oxo-1-(m-tolyl)-1,4-dihydroquinazolin-6-yl)acetamide] | > 10 | 47.6 ± 5.56 | > 10 | 255 | > 10 | – | – | – | – | – | – | – |

| SMILES | EC50 [1, 8] [µM] | CC50 at 3 days [2] [µM] | EC50 [3, 9] [µM] | melting point [°C] | EC50 [4, 10] [µM] | EC50 [1] [µM] | IC50 [5, 11] [µM] | EC50 [6] [µM] | activity against GT 2a [7] | EC50 [3] [µM] | EC50 [4] [µM] | IC50 ([5]; enzymatic assays) [µM] |
| --- | --- | --- | --- | --- | --- | --- | --- | --- | --- | --- | --- | --- |
| Cc1ccc(S(=O)(=O)Nc2ccc(Oc3ccccc3)cc2C(=O)O)cc1 [V] | – | – | – | – | – | – | 0.22 | > 30 | – | – | – | – |
| Nc1ccc2c(c1)c(=O)ncn2-c1ccccc1 [5a, 6-Amino-1-phenylquinazolin-4(1H)-one] | 9.84 ± 0.57 | > 200 | > 10 | 293 to 295 | > 10 | – | – | – | – | – | – | – |
| Cc1cccc(-n2c(C)nc(=O)c3cc(NC(=O)COc4ccc(Cl)cc4)ccc32)c1 [11e, 2-(4-Chlorophenoxy)-N-(2-methyl-4-oxo-1-(m-tolyl)-1,4-dihydroquinazolin-6-yl)acetamide] | 6.24 ± 0.04 | 36.6 ± 4.19 | 8.4 ± 0.15 | 283 | 15.2 ± 0.29 | – | – | – | no activity | – | – | – |
| Cc1cccc(-n2c(C)nc(=O)c3cc([N+](=O)[O-])ccc32)c1 [8b, 2-Methyl-6-nitro-1-(m-tolyl)quinazolin-4(1H)-one] | – | 151 ± 5.41 | > 10 | 258 to 260 | > 10 | > 10 | – | – | – | – | – | – |
| COC(=O)N[C@H](C(=O)N1CCC[C@H]1c1nc(-c2ccc(-c3ccc(-c4c[nH]c([C@@H]5CCCN5C(=O)[C@@H](NC(=O)OC)C(C)C)n4)cc3)cc2)c[nH]1)C(C)C [Daclatasvir, reference compound] | 2.66e-05 | 17.7 | – | – | – | – | – | – | – | 2.12e-05 | 0.008 ± 0.001 | – |
| O=C(CCl)Nc1ccc2c(c1)c(=O)ncn2-c1ccccc1 [6a, 2-Chloro-N-(4-oxo-1-phenyl-1,4-dihydroquinazolin-6-yl)acetamide] | > 10 | 104.2 ± 0.03 | > 10 | < 300 | > 10 | – | – | – | – | – | – | – |
| O=c1ncn(Cc2c(F)cc(F)cc2F)c2ccc(Oc3cccc(-c4ccccn4)c3C(F)(F)F)cc12 [VIII] | – | – | – | – | – | – | – | 0.31 | – | – | – | – |
| Cc1cccc(Nc2ccc([N+](=O)[O-])cc2C(=O)O)c1 [1b, 5-nitro-2-(m-tolylamino)benzoic acid] | > 10 | > 200 | > 10 | – | > 10 | – | – | – | – | – | – | – |
| Cc1nc(=O)c2cc(NC(=O)CCl)ccc2n1-c1ccccc1 [10a, 2-Chloro-N-(2-methyl-4-oxo-1-phenyl-1,4-dihydroquinazolin-6-yl)acetamide] | > 10 | 87.47 ± 0.24 | > 10 | 285 | > 10 | – | – | – | – | – | – | – |
| Cc1cccc(-n2c(C)nc(=O)c3cc(NC(=O)COc4ccc(Cl)c(C)c4)ccc32)c1 [11f, 2-(4-Chloro-3-methylphenoxy)-N-(2-methyl-4-oxo-1-(m-tolyl)-1,4-dihydroquinazolin-6-yl)acetamide] | > 1 | 27.4 ± 2.71 | > 10 | 290 | > 10 | – | – | – | – | – | – | – |
| O=C(O)c1cc([N+](=O)[O-])ccc1Nc1ccccc1 [1a, 5-nitro-2-(phenylamino)-benzoic acid] | > 10 | > 200 | > 10 | – | > 10 | – | – | – | – | – | – | – |
| CCc1ccc(/C=C2\SC(N[C@H](C(=O)O)c3ccc(F)cc3)=NC2=O)o1 [III] | – | – | – | – | – | – | – | – | – | – | – | 3 |
| Cc1cccc(-n2cnc(=O)c3cc(NC(=O)COc4ccc(Cl)c(C)c4)ccc32)c1 [7f, 2-(4-Chloro-3-methylphenoxy)-N-(4-oxo-1-(m-tolyl)-1,4-dihydroquinazolin-6-yl)acetamide] | > 10 | 105 ± 10.3 | > 10 | 269 | > 10 | – | – | – | – | – | – | – |
| Cc1cc(OCC(=O)Nc2ccc3c(c2)c(=O)nc(C)n3-c2ccccc2)ccc1Cl [11c, 2-(4-Chloro-3-methylphenoxy)-N-(2-methyl-4-oxo-1-phenyl-1,4-dihydroquinazolin-6-yl)acetamide] | > 10 | > 200 | > 10 | 271 | > 10 | – | – | – | – | – | – | – |
| Cc1ccc(OCC(=O)Nc2ccc3c(c2)c(=O)nc(C)n3-c2cccc(C)c2)cc1 [11d, N-(2-Methyl-4-oxo-1-(m-tolyl)-1,4-dihydroquinazolin-6-yl)-2-(p-tolyloxy)acetamide] | > 1 | 22.7 ± 2.23 | > 10 | 270 | > 10 | – | – | – | – | – | – | – |
| Cc1ccc(OCC(=O)Nc2ccc3c(c2)c(=O)ncn3-c2ccccc2)cc1 [7a, N-(4-Oxo-1-phenyl-1,4-dihydroquinazolin-6-yl)-2-(p-tolyloxy)acetamide] | > 10 | 84.7 ± 14 | > 10 | 220 | > 10 | – | – | – | – | – | – | – |

Source: PMC9782603 (Viruses, 2022)
